Article PMC10461229 (Journal of Medicinal Chemistry, 2023)
Read-outs that look alike come from different tables or passages of the source.

Tests used:
[1] = tested on: wild-type (WT) Mtb Erdman; assay: microbe, parasite or virus in culture; assay type: cell-based, Mycobacterium tuberculosis; details: read-out: MABA mean IC50 ± SD
Mtb katG^FS = assay type: cell-based, Mycobacterium tuberculosis
Mtb Erdman = assay type: cell-based, Mycobacterium tuberculosis
HEK 293 = details: for HEK 293 LD50: 48 h, MTT; for Therapeutic index, LD50 in HEK 293 / MABA IC50: 48 h treatment, MTT assay
[2] = tested on: murine RAW 264.7 macrophages; assay: Cytotoxicity assay on murine macrophages; assay type: cell-based, mouse; details: 5 days, total cell number vs DMSO 1%
Method: Mouse macrophage RAW 264.7 cells (ATCC # TIB-71) were maintained in RPMI-1640 + GlutaMAX containing 10% heat-inactivated fetal bovine serum (FBS, 10270106, Gibco). Macrophages were harvested using Versene (15040033, LifeTechnologies).
For assay plate preparation, the lead compounds were diluted in DMSO (Sigma-Aldrich) to 10 mg/mL and dispensed in Echo-qualified 384-well low dead volume source plates using the Echo 550 Series Liquid Handler (Labcyte). The compounds were transferred to 384-well clear-bottom polystyrene assay plates (781091, Greiner Bio-One) using acoustic liquid handling technology. All samples were backfilled with DMSO.
The cellular suspension (50 μL containing 20,000 cells) was added to the 384-well assay plate and incubated for 5 days at 37 °C, 5% CO2. Macrophages were then stained with SYTO 60 dye (S11342, Molecular probes), followed by image acquisition and data analysis. Confocal images were recorded on an automated high-content fluorescence microscope (InCell 6500, Cytiva). A series of four pictures of each well were taken, and each image was then analyzed using the Columbus system to infer the total number of cells. Dose–response plots were generated for each compound using GraphPad Prism software.

IMR-90 = details: for IMR-90 LD50: 48 h, MTT
BEAS-2B = details: for BEAS-2B LD50: 48 h, MTT; for Therapeutic index, LD50 in BEAS-2B / MABA IC50: 48 h treatment, MTT assay
Calu-3 cells = details: for Calu-3 LD50: 72 h, CellTiter-Glo, 50% decrease in cellular ATP, IMD salts; for Therapeutic index, LD50 in Calu-3 / MABA IC50: 72 h treatment, CTG assay
[3] = tested on: H37Rv-GFP Mtb in murine RAW 264.7 macrophages; assay type: cell-based, Mycobacterium tuberculosis
Mtb biofilm formation = assay: microbe, parasite or virus in culture; assay type: cell-based; details: Mycobacterium tuberculosis, 504 h, read-out: Biofilm inhibition IC50
in vitro = details: human, Caco-2, pH 7.4
CYP3A4 = molecular target: T1, CYP3A4 (Homo sapiens, UniProt P08684); assay: CYP3A4 inhibition in human liver microsomes; assay type: in vitro ADME; details: HLM
T1 construct: from tissue; host or cells: human liver microsomes
T1 sequence (P08684 whole entry): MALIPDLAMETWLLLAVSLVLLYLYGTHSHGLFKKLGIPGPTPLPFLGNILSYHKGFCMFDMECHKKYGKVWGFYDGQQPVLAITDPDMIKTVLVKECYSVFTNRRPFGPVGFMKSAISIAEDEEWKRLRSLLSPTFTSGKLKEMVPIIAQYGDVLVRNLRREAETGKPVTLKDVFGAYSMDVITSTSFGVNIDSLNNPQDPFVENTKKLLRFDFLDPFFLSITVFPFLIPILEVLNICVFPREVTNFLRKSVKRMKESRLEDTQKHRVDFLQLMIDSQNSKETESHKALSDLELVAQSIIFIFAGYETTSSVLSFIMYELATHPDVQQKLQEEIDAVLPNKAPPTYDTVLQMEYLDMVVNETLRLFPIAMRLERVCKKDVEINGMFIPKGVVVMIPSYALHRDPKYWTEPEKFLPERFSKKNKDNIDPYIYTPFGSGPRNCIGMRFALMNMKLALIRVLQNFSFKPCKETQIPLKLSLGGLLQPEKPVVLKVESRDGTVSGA

CYP2C9 = CYP2C9 (Homo sapiens, UniProt P11712); assay: CYP2C9 inhibition in human liver microsomes; details: for % 4 OH-diclofenac activity: HLM
Sequence of CYP2C9 (P11712 whole entry): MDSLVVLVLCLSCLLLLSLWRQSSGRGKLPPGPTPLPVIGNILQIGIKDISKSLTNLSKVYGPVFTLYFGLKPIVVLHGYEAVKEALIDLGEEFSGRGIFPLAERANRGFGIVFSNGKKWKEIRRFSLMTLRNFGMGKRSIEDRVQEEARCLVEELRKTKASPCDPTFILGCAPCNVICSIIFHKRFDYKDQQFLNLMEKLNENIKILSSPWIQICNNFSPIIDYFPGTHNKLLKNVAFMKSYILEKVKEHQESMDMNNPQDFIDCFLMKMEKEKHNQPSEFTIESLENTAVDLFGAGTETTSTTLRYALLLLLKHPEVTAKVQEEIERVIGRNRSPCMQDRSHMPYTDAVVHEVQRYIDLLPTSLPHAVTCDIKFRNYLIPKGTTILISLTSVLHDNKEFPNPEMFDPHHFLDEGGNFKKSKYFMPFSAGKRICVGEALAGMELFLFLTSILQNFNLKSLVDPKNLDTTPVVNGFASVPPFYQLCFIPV

Caco-2 cells = details: membrane integrity control, 5 μM; cited from earlier work
[4] = Mycobacterium tuberculosis, ERDMAN

| Compound | IC50 [1, 4] [µM] | IC50 [1] [µM] | Mtb katG^FS CFU after 13 days, combination with INH (Mtb katG^FS) | Mtb katG^FS CFU after 13 days, compound alone vs control (Mtb katG^FS) | HEK 293 LD50 (HEK 293) [µM] | Therapeutic index, LD50 in HEK 293 / MABA IC50 (HEK 293) | cytotoxicity for uninfected murine RAW 264.7 macrophages [2] | IMR-90 LD50 (IMR-90) [µM] | BEAS-2B LD50 (BEAS-2B) [µM] | Therapeutic index, LD50 in BEAS-2B / MABA IC50 (BEAS-2B) | Calu-3 LD50 (Calu-3 cells) [µM] | Therapeutic index, LD50 in Calu-3 / MABA IC50 (Calu-3 cells) | IC50 (Mtb biofilm formation) [µM] | % 1OH-midazolam activity (CYP3A4; 1 μM compound) [%] | % 6OH-testosterone activity (CYP3A4; 1 μM compound) [%] | % 1OH-midazolam activity (CYP3A4; 10 μM compound) [%] | % 6OH-testosterone activity (CYP3A4; 10 μM compound) [%] | % 1OH-midazolam activity (CYP3A4; 100 μM compound) [%] | % 6OH-testosterone activity (CYP3A4; 100 μM compound) [%] | IC50 (CYP2C9) [µM] | also measured |
| --- | --- | --- | --- | --- | --- | --- | --- | --- | --- | --- | --- | --- | --- | --- | --- | --- | --- | --- | --- | --- | --- |
| O=C(O)C1CSc2c(C3CC3)c(-c3cc(-c4ccc5ccccc5c4)no3)cc(=O)n21 (racemic) [Compound 17h, (±) 8-Cyclopropyl-7-(3-(naphthalen-2-yl)isoxazol-5-yl)-5-oxo-2,3-dihydro-5H-thiazolo[3,2-a]pyridine-3-carboxylic Acid] | 0.703 | 0.7 ± 0.05 | below the input dose | no difference in CFU | 101.6 | 144.5 | not cytotoxic | 122.5 | 143.1 | 203.5 | >250 | >355 | 3.47 ± 1.21 | – | – | – | – | – | – | – | inhibition of OD600 of Mtb cultures in the presence of tyloxapol (Mtb Erdman): neither 17h nor 17j inhibited the OD600 of Mtb cultures; inhibition of intracellular Mtb replication in macrophages [3]: inhibited intracellular mycobacteria at concentrations lower than C10 |
| CC(C)(C)c1ccc(-c2nnc(SCc3cc(=O)n4c(c3C3CC3)SCC4C(=O)O)o2)cc1 (racemic) [Compound 8f, (±) 7-(((5-(4-(tert-Butyl)phenyl)-1,3,4-oxadiazol-2-yl)thio)methyl)-8-cyclopropyl-5-oxo-2,3-dihydro-5H-thiazolo[3,2-a]pyridine-3-carboxylic Acid] | 6.2 | 6.19 ± 0.67 | – | – | – | – | – | – | – | – | – | – | – | 108 ± 4.1 | 98 ± 4.0 | 117 ± 1.4 | 94 ± 5.8 | 84 ± 5.0 | 60 ± 1.9 | 10 to 100 | Papp A→B (in vitro): 3.3 ×10⁻⁶ cm/s; % 4 OH-diclofenac activity (CYP2C9; 1 μM compound): 100 ± 2.7%; % 4 OH-diclofenac activity (CYP2C9; 10 μM compound): 93 ± 6.7%; % 4 OH-diclofenac activity (CYP2C9; 100 μM compound): 31 ± 3.6% |
| CC(C)(C)c1ccc(-n2cc(-c3cc(=O)n4c(c3C3CC3)SCC4C(=O)O)nn2)cc1 (racemic) [Compound 15d, (±) 7-(1-(4-(tert-Butyl)phenyl)-1H-1,2,3-triazol-4-yl)-8-cyclopropyl-5-oxo-2,3-dihydro-5H-thiazolo[3,2-a]pyridine-3-carboxylic Acid] | 5.67 ± 0.82 | – | – | – | – | – | – | – | – | – | – | – | – | 102 ± 1.4 | 105 ± 1.0 | 95 ± 2.7 | 101 ± 3.9 | 67 ± 1.5 | 75 ± 1.9 | 1 to 10 | Papp A→B at 2 µM (in vitro): 0.88 ×10⁻⁶ cm/s; % 4 OH-diclofenac activity (CYP2C9; 1 μM compound): 83 ± 4.6%; % 4 OH-diclofenac activity (CYP2C9; 10 μM compound): 32.9 ± 1.0%; % 4 OH-diclofenac activity (CYP2C9; 100 μM compound): 2.61 ± 0.29% |
| C[C@H](N[C@@H](CCc1ccccc1)C(=O)O)C(=O)N1CCC[C@H]1C(=O)O [enalaprilat] | – | – | – | – | – | – | – | – | – | – | – | – | – | – | – | – | – | – | – | – | Papp of enalaprilat for a tight monolayer (Caco-2 cells): < 1 × 10^–6 cm/s |
| O=C(O)C1CSc2c(C3CC3)c(Cc3cccc4ccccc34)cc(=O)n21 (centres unmarked) [Compound C10, reference compound] | 14.4 | 14.4 | did not inhibit the survival of Mtb katG^FS beyond the effect of INH alone | no difference in CFU | 151.7 | 10.5 | not cytotoxic | 147.1 | 146.2 | 10.1 | 160.4 | 11.1 | 8.28 ± 3.23 | – | – | – | – | – | – | – | Therapeutic index, LD50 in IMR-90 / MABA IC50 (IMR-90; 48 h treatment, MTT assay): 10.1 |
| NNC(=O)c1ccncc1 [INH, isoniazid] | – | – | – | – | – | – | – | – | – | – | – | – | – | – | – | – | – | – | – | – | surviving Mtb katG^FS after 13 days of treatment (Mtb katG^FS): 8.09 × 10^8 CFU/mL |
